Results: patent US8143243B2, “Compounds for the treatment of hepatitis C” (Bristol-Myers Squibb Company, priority 2007, dated 2012)
Where two headings read alike, the source gives them in different places.

How the values were obtained:
HCV replicon cells = experiment: HCV replicon FRET / luciferase assay; format: cell-based; details: Hepatitis C virus
Summary of the method: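 Percent activity is background-subtracted signal relative to untreated cell wells, with background taken from maximal protease-inhibitor wells. Cytotoxicity is Alamar blue fluorescence relative to controls. Replicon inhibition was read by NS3 FRET peptide cleavage (340/490 nm) or luciferase.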

HCV NS5B = target: T1, HCV NS5B (Hepatitis C virus genotype 1b, UniProt Q9WMX2); experiment: HCV NS5B RdRp enzyme assay (standard / modified); format: biochemical
T1 construct: The protein was expressed with an 18 amino acid C-terminal truncation to enhance the solubility; made in house; host or cells: E. coli BL21 (DE3)
T1 sequence (Q9WMX2 2420-2992): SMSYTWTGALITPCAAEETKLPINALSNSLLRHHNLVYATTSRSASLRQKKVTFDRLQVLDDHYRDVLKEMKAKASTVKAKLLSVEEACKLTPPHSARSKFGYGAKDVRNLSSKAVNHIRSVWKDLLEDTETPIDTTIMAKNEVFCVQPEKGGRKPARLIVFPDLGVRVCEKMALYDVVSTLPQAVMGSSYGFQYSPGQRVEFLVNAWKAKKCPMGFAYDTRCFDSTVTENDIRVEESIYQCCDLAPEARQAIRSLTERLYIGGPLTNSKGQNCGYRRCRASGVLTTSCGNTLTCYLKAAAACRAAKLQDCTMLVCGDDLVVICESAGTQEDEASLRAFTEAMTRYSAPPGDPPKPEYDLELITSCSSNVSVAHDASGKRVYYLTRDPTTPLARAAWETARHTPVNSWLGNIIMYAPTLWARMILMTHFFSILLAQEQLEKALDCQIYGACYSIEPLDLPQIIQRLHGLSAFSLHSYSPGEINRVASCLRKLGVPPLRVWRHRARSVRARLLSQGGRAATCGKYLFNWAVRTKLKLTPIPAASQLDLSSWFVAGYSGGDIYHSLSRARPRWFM
Summary of the method: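 SPA detection of 3H-UTP (0.29 μM) incorporation by C-terminally truncated (18 aa) genotype 1b NS5B from E. coli, on polyA/biotin-oligo-dT12 at 30° C, pH 7.5 Hepes, 2% DMSO. Modified format: 14 nM enzyme, 0.2 nM template, 20 nM primer prebound to beads, 4 h; standard: 28 nM, 6 nM, 180 nM free primer, 60 min. Seven-point IC50 fit.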

[1] = HCV replicon cells, FRET or luciferase readout, read-out: EC50
[2] = HCV RdRp genotype 1b enzyme, read-out: IC50

Row | SMILES | EC50 (HCV replicon cells; [1]) [nM] | IC50 (HCV NS5B; [2]) [nM] | EC50 (HCV replicon cells) [nM] | IC50 (HCV NS5B) [nM]
1 | COc1ccc2c(c1)C=C(c1c(C(=O)N(CC3CCCO3)C(C)C)cnn1C)Cn1c-2c(C2CCCCC2)c2ccc(C(=O)NS(=O)(=O)C(C)C)cc21 (centres unmarked) | 1 to 500 | 1 to 500 |  | 
2 | COc1ccc2c(c1)C=C(c1c(C(=O)N3CCCC(N(C)C)C3)cnn1C)Cn1c-2c(C2CCCCC2)c2ccc(C(=O)NS(=O)(=O)N3CCOCC3)cc21 (centres unmarked) | 1 to 500 | 1 to 500 |  | 
3 | COc1ccc2c(c1)C=C(c1c(C(=O)O)c(C)nn1C)Cn1c-2c(C2CCCCC2)c2ccc(C(=O)NS(=O)(=O)C(C)C)cc21 | > 500 | 1 to 500 |  | 
4 | COc1ccc2c(c1)C=C(c1c(C(=O)N3C[C@H]4CC[C@@H](C3)N4C)cnn1C)Cn1c-2c(C2CCCCC2)c2ccc(C(=O)NS(=O)(=O)N3CCOCC3)cc21 |  |  | 1 to 500 | 1 to 500
5 | COc1ccc2c(c1)C=C(c1c(C(=O)N3C[C@@H](C)N(C)[C@@H](C)C3)c(C(F)(F)F)nn1C)Cn1c-2c(C2CCCCC2)c2ccc(C(=O)NS(=O)(=O)C(C)C)cc21 | 1 to 500 | 1 to 500 |  | 
6 | COc1ccc2c(c1)C=C(c1c(C(=O)N3CC4CCC(C3)N4C)cnn1CC(F)(F)F)Cn1c-2c(C2CCCCC2)c2ccc(C(=O)NS(=O)(=O)C(C)C)cc21 |  |  | 1 to 500 | 1 to 500
7 | COc1ccc2c(c1)C=C(c1c(C(=O)N3C4CCC3CN(C)C4)cnn1CC(F)(F)F)Cn1c-2c(C2CCCCC2)c2ccc(C(=O)NS(=O)(=O)C(C)C)cc21 |  |  | 1 to 500 | 1 to 500
8 | COc1ccc2c(c1)C=C(c1c(C(=O)N3CCN4CCCC4C3)cnn1C)Cn1c-2c(C2CCCCC2)c2ccc(C(=O)NS(=O)(=O)C3CCC3)cc21 (centres unmarked) | 1 to 500 | 1 to 500 |  | 
9 | COc1ccc2c(c1)C=C(c1c(C(=O)N3CC4CCC(C3)N4C)c(C(F)(F)F)nn1C)Cn1c-2c(C2CCCCC2)c2ccc(C(=O)NS(=O)(=O)C(C)C)cc21 |  |  | 1 to 500 | 1 to 500
10 | CCN1C[C@@H]2C[C@H]1CN2C(=O)c1c(C)nn(C(C)C)c1C1=Cc2cc(OC)ccc2-c2c(C3CCCCC3)c3ccc(C(=O)NS(=O)(=O)C(C)C)cc3n2C1 | 1 to 500 | 1 to 500 |  | 
11 | COc1ccc2c(c1)C=C(c1c(C(=O)N3CCCC3CN3CCCCC3)cnn1C)Cn1c-2c(C2CCCCC2)c2ccc(C(=O)NS(=O)(=O)N3CCOCC3)cc21 (centres unmarked) | 1 to 500 | 1 to 500 |  | 
12 | COc1ccc2c(c1)C=C(c1c(C(=O)N3C[C@@H](C)O[C@@H](C)C3)c(C)nn1C(C)C)Cn1c-2c(C2CCCCC2)c2ccc(C(=O)NS(=O)(=O)C(C)C)cc21 | 1 to 500 | 1 to 500 |  | 
13 | COc1ccc2c(c1)C=C(c1c(C(=O)N3C4CCC3CN(C)C4)cnn1C)Cn1c-2c(C2CCCCC2)c2ccc(C(=O)NS(=O)(=O)C3CCCC3)cc21 |  |  | 1 to 500 | 1 to 500
14 | COc1ccc2c(c1)C=C(c1ocnc1C(=O)N1CCOCC1)Cn1c-2c(C2CCCCC2)c2ccc(C(=O)OC(C)(C)C)cc21 | > 40 | > 40 |  | 
15 | COc1ccc2c(c1)C=C(c1c(C(=O)N3CCOCC3)cnn1C)Cn1c-2c(C2CCCCC2)c2ccc(C(=O)NS(=O)(=O)CC(C)C)cc21 | 1 to 500 | 1 to 500 |  | 
16 | CCN1C[C@@H]2CC1CN2C(=O)c1cnn(C(C)C)c1C1=Cc2cc(OC)ccc2-c2c(C3CCCCC3)c3ccc(C(=O)NS(=O)(=O)C(C)C)cc3n2C1 | 1 to 500 | 1 to 500 |  | 
17 | COc1ccc2c(c1)C=C(c1c(C(=O)N3C[C@@H](C)N(C)[C@@H](C)C3)c(C)nn1C)Cn1c-2c(C2CCCCC2)c2ccc(C(=O)NS(=O)(=O)C(C)C)cc21 | 1 to 500 | 1 to 500 |  | 
18 | COC[C@@H]1CN(C(=O)c2cnn(C)c2C2=Cc3cc(OC)ccc3-c3c(C4CCCCC4)c4ccc(C(=O)NS(=O)(=O)C5CCC5)cc4n3C2)CCO1 | 1 to 500 | 1 to 500 |  | 
19 | COC[C@@H]1CN(C(=O)c2cnn(C)c2C2=Cc3cc(OC)ccc3-c3c(C4CCCCC4)c4ccc(C(=O)NS(=O)(=O)C5CCCC5)cc4n3C2)CCO1 | 1 to 500 | 1 to 500 |  | 

Row | SMILES | EC50 (HCV replicon cells; [1]) [nM] | IC50 (HCV NS5B; [2]) [nM] | EC50 (HCV replicon cells) [nM] | IC50 (HCV NS5B) [nM]
20 | COc1ccc2c(c1)C=C(c1c(C(=O)N3CCOCC3)cnn1C)Cn1c-2c(C2CCCCC2)c2ccc(C(=O)NS(=O)(=O)C3CCCC3)cc21 | 1 to 500 | 1 to 500 |  | 
21 | COc1ccc2c(c1)C=C(c1c(C(=O)N3C4COCC3COC4)cnn1C(C)C)Cn1c-2c(C2CCCCC2)c2ccc(C(=O)NS(=O)(=O)CC(C)C)cc21 |  |  | 1 to 500 | 1 to 500
22 | COCCN(C(=O)c1cnn(C)c1C1=Cc2cc(OC)ccc2-c2c(C3CCCCC3)c3ccc(C(=O)NS(=O)(=O)N4CCOCC4)cc3n2C1)C(C)C | 1 to 500 | 1 to 500 |  | 
23 | COc1ccc2c(c1)C=C(c1c(C(=O)N3CC4CCC(C3)N4C)cnn1C)Cn1c-2c(C2CCCCC2)c2ccc(C(=O)NS(=O)(=O)C(C)C)cc21 |  |  | 1 to 500 | 1 to 500
24 | CCC(C)S(=O)(=O)NC(=O)c1ccc2c(C3CCCCC3)c3n(c2c1)CC(c1c(C(=O)N2C4COCC2COC4)cnn1C)=Cc1cc(OC)ccc1-3 (centres unmarked) |  |  | 1 to 500 | 1 to 500
25 | CCOC(=O)c1cnn(C)c1C1=Cc2cc(OC)ccc2-c2c(C3CCCCC3)c3ccc(C(=O)OC(C)(C)C)cc3n2C1 | 1 to 500 | > 40 |  | 
26 | COc1ccc2c(c1)C=C(c1c(C(=O)N3CCN(C)CC3)cnn1C)Cn1c-2c(C2CCCCC2)c2ccc(C(=O)NS(=O)(=O)C(C)C)cc21 | 1 to 500 | 1 to 500 |  | 
27 | COc1ccc2c(c1)C=C(c1c(C(=O)N3CC(C)OC(C)C3)cnn1C(C)C)Cn1c-2c(C2CCCCC2)c2ccc(C(=O)NS(=O)(=O)C(C)C)cc21 (centres unmarked) | 1 to 500 | 1 to 500 |  | 
28 | CCn1ncc(C(=O)N2CCOCC2)c1C1=Cc2cc(OC)ccc2-c2c(C3CCCCC3)c3ccc(C(=O)NS(=O)(=O)C(C)C)cc3n2C1 | 1 to 500 | 1 to 500 |  | 
29 | COc1ccc2c(c1)C=C(c1ocnc1C(=O)O)Cn1c-2c(C2CCCCC2)c2ccc(C(=O)OC(C)(C)C)cc21 | > 40 | > 40 |  | 
30 | CCN1C[C@H]2C[C@@H]1CN2C(=O)c1cnn(C(C)C)c1C1=Cc2cc(OC)ccc2-c2c(C3CCCCC3)c3ccc(C(=O)NS(=O)(=O)CC(C)C)cc3n2C1 | 1 to 500 | 1 to 500 |  | 
31 | COC[C@@H]1CN(C(=O)c2cnn(C(C)C)c2C2=Cc3cc(OC)ccc3-c3c(C4CCCCC4)c4ccc(C(=O)NS(=O)(=O)C(C)C)cc4n3C2)CCO1 | 1 to 500 | 1 to 500 |  | 
32 | COc1ccc2c(c1)C=C(c1c(C(=O)N3C[C@@H](C)N(C)[C@@H](C)C3)cnn1C(C)C)Cn1c-2c(C2CCCCC2)c2ccc(C(=O)NS(=O)(=O)CC(C)C)cc21 | 1 to 500 | 1 to 500 |  | 
33 | COC[C@@H]1CN(C(=O)c2cnn(C)c2C2=Cc3cc(OC)ccc3-c3c(C4CCCCC4)c4ccc(C(=O)NS(=O)(=O)CC(C)C)cc4n3C2)CCO1 | 1 to 500 | 1 to 500 |  | 
34 | COc1ccc2c(c1)C=C(c1c(C(=O)N3CCOCC3)c(C)nn1C)Cn1c-2c(C2CCCCC2)c2ccc(C(=O)NS(=O)(=O)C(C)C)cc21 | 1 to 500 | 1 to 500 |  | 
35 | COc1ccc2c(c1)C=C(c1c(C(=O)N3CCOCC3)cnn1C)Cn1c-2c(C2CCCCC2)c2ccc(C(=O)NS(=O)(=O)N(C)C)cc21 | 1 to 500 | 1 to 500 |  | 
36 | COc1ccc2c(c1)C=C(c1c(C(=O)N3C[C@@H](C)O[C@@H](C)C3)c(C(F)(F)F)nn1C)Cn1c-2c(C2CCCCC2)c2ccc(C(=O)NS(=O)(=O)C(C)C)cc21 | 1 to 500 | < 20 |  | 
37 | COc1ccc2c(c1)C=C(c1ocnc1C(=O)N1CCOCC1)Cn1c-2c(C2CCCCC2)c2ccc(C(=O)NS(=O)(=O)N3CCOCC3)cc21 | 1 to 500 | 1 to 500 |  | 
